According to patent publication US20060025419A1, “Imidazoquinoxaline compound for the treatment of melanoma” (priority 2004, published 2006):

Tests used:
[1] = system: SK-Mel-5 cells; experiment: Electron microscopy of cultured melanoma cells; format: cell-based, human; conditions: 10 μM, 24 h
[2] = system: Normal human epidermal melanocytes (NHEM); experiment: Growth of cultured cells, hemocytometer counting; format: cell-based
Description: A super-repressor form of human IκBα (S32, 36A) resistant to degradation and mutant IKKβ […]) was kindly provided by Javier […] Cancer Center, University of California-San Diego School of Medicine). Antibodies to IKKα (H-744), IKKβ (H-470), Bcl-2, Bax and AIF were purchased from Santa Cruz Biotechnology, Inc. (Santa Cruz, Calif.). […] N-acetyl-L-cysteine (NAC) and Tiron were from Sigma-Aldrich (St. Louis, Mo.). Normal human epidermal melanocytes (NHEM) were provided by the Skin Disease Research Center in Vanderbilt University School of Medicine. NHEM were cultured in 154 medium with 1× human melanocyte growth supplement (Cascade Biologicals, Inc.). The melanoma cell lines, Sk Mel5, A375 and Hs294T, originally established from human metastatic melanoma, were purchased from American Type Culture Collection and cultured in DMEM: Ham's F-12 medium containing 10% FBS, 2 mM of L-glutamine, 100 μM of MEM Non-Essential Amino Acids (Life Technologies, Inc.), and 1 mM of sodium pyruvate (Sigma Chemical Co.). Aberrant activation of NF-κB has been associated with carcinogenesis, and constitutively high IKK activity has been detected in many tumor types, including human melanoma (Yang & Richmond, 2001; […] et al., 2003; […] et al., 2003). IKK is a major regulator of the NF-κB pathway and therefore represents an attractive therapeutic target in advanced cancers. […] After three days of culture, the cell numbers were determined by hemocytometer counting (Table 1).

[3] = Body weight and tolerability in treated tumor-bearing mice; format: in vivo
[4] = BMS-345541 levels in mouse serum and tumor tissues after oral dose; format: in vivo, mice
Procedure: FIGS. 1A-1E. […] After 72 h treatment, cells were photographed. […] 2×10^6 SK-Mel-5 melanoma cells were subcutaneously inoculated into nude mice (n=5 mice per group). […] Tumor size was measured using an electronic digital caliper at intervals of 4 days. Tumor volume was calculated and statistically analyzed. Data shown are representative of two independent experiments. […] BMS-345541 levels in serum (μM, left axis) and tumor tissues (nmoles per gram tumor protein, right axes) were determined at the indicated time points.
Tumor tissue levels of drug were 3.2±0.97, 12.5±3.28 and 28.1±2.65 nmoles per gram tissue protein for the three treatment groups, respectively.

[5] = system: mitochondria isolated from SK-Mel-5; experiment: Cytochrome-c release from isolated mitochondria; design: species or system human; conditions: 10 μM, 4° C., 30 min
Procedure: FIGS. 5A-5E. […] (FIG. 5A) Redistribution of Bcl-2 and Bax in mitochondria. […] Subcellular mitochondria and cytoplasm were prepared and subjected to Western blot analysis for Bcl-2 and Bax. (FIG. 5B) Dissipation of mitochondrial Δψm. […] After exposure, mitochondria were isolated and incubated with 80 μM 3,3′dihexyloxacarbocyanine iodide (DiOC6) at 37° C. for 15 min. Δψm was determined by FACS analysis using 484/530 nm filters within 10 min while gating the forward and sideward scatters on intact mitochondria (FIG. 5C). (FIG. 5D) Release of cytochrome-C and AIF. […] Subcellular extracts were prepared and subjected to Western blot analysis for cytochrome-C and AIF. […] The supernatant was assessed for cytochrome-c release. […]
The Mitochondria Isolation Kit (Pierce, Rockford, Ill.) was used for isolation of mitochondria from cultured melanoma cells according to the manufacture's instruction for the Reagent-based method. […] The purity of mitochondria was determined by Western blotting with β-actin, where β-actin negative preparation were fully to be pure. […]
Mitochondria play a crucial role in the regulation of programmed cell death (Zamzami et al., 1995a; 1995b; 1996a; 1996b). […] To investigate alteration of the apoptotic proteins in mitochondria during BMS-345541-induced apoptosis, the ratio of Bcl-2 and Bax distributed in mitochondria was analyzed in SK-Mel-5 cells using Western blot. […]

With `Cc1ccc2nc(NCCN)c3ncc(C)n3c2c1.Cl` [BMS-345541, 4(2′-aminoethyl)amino-1,8-dimethylimidazo(1,2-a)quinoxaline] the “morphology under electron microscopy” value [1] was “typical feature of apoptosis”, the “cell number after three days of culture” value ([2]; 0.1 μM) was 4.8 ± 0.28 and the “cell number after three days of culture” value ([2]; 1.0 μM) was 4.9 ± 0.38. The “cell number after three days of culture” value ([2]; 10 μM) was 0.18 ± 0.04, the “average loss of body weight” value ([3]; 10 mg/kg orally once daily) was 5% and the “average loss of body weight” value ([3]; 25 mg/kg orally once daily) was 9%. For the same molecule, the “average loss of body weight” value ([3]; 75 mg/kg orally once daily) was 14%, the tolerability in mice ([3]; oral, once daily, 21 days) was “well tolerated” and the “concentration in tumor tissues” value ([4]; 75 mg/kg oral, 1.5 h (FIG. 1E)) was 19±2.5 nmoles/g tissue protein. The “concentration in tumor tissues” value ([4]; 75 mg/kg oral, 3 h (FIG. 1E)) was 44±1.5 nmoles/g tissue protein, the “concentration in tumor tissues” value ([4]; 75 mg/kg oral, 5 h (FIG. 1E)) was 30±1.0 nmoles/g tissue protein and the “concentration in tumor tissues” value ([4]; 75 mg/kg oral, 8 h (FIG. 1E)) was 29±2.5 nmoles/g tissue protein. The “concentration in tumor tissues” value ([4]; 75 mg/kg oral, 24 h (FIG. 1E)) was 11±0.83 nmoles/g tissue protein, the tumor tissue level ([4]; 8 h after oral dose of 10 mg/kg) was 3.2±0.97 nmoles per gram tissue protein and the tumor tissue level ([4]; 8 h after oral dose of 25 mg/kg) was 12.5±3.28 nmoles per gram tissue protein. The tumor tissue level ([4]; 8 h after oral dose of 75 mg/kg (dose series)) was 28.1±2.65 nmoles per gram tissue protein, the concentration at 1.5 h ([4]; nude, mouse, serum, 75 mg/kg oral, 1.5 h (FIG. 1E)) was 6.6 ± 0.31 µM and the concentration at 3 h ([4]; nude, mouse, serum, 75 mg/kg oral, 3 h (FIG. 1E)) was 18 ± 1.3 µM. It also gave a concentration at 5 h ([4]; nude, mouse, serum, 75 mg/kg oral, 5 h (FIG. 1E)) of 5.2 ± 0.19 µM, a concentration at 8 h ([4]; nude, mouse, serum, 75 mg/kg oral, 8 h (FIG. 1E)) of 4.1 ± 0.22 µM and a concentration at 24 h ([4]; nude, mouse, serum, 75 mg/kg oral, 24 h (FIG. 1E)) of 1.1 ± 0.065 µM. For the same molecule, the concentration at 8 h ([4]; nude, mouse, serum, 8 h after oral dose of 10 mg/kg) was 0.9 ± 0.25 µM, the concentration at 8 h ([4]; nude, mouse, serum, 8 h after oral dose of 25 mg/kg) was 3.1 ± 1.1 µM and the concentration at 8 h ([4]; nude, mouse, serum, 8 h after oral dose of 75 mg/kg (dose series)) was 8.2 ± 1.1 µM. The “direct action on isolated mitochondria (cytochrome-c release into supernatant)” value [5] was “no direct action”.
